Laboratory results from patent US20080113073A1, “Hydroxydeoxybenzoins And The Use Thereof to Mask A Bitter Taste” (SYMRISE GMBH & CO. KG, priority 2005, published 2008).

Legend:
[1] = system: bitter impression of a caffeine solution; experiment: Bitter reduction of a caffeine solution, rated by a group of experts (0 not bitter to 10 extremely bitter); type: in vivo; details: for Bitter impression (1-10) with: 500 ppm caffeine plus 100 ppm substance, 95% confidence intervals given as error; for % reduction in the bitter impression: 500 ppm caffeine, 100 ppm substance, calculated from average ratings without/with substance
Experimental: In order to quantify the reduction in the bitter impression, the bitterness of a caffeine solution comprising 500 ppm and of a sample comprising 500 ppm of caffeine and a variable amount of the compound of the example was determined by a group of experts (rating 0 [not bitter] to 10 [extremely bitter]). The evaluation was carried out by calculating the reduction (in %) in the bitter impression from the average values of the assessments of the caffeine solution or the solutions containing caffeine and compound of the example. 2,4-Dihydroxybenzoic acid (2,4-DHB) was used as comparison in accordance with U.S. Pat. No. 5,643,941.

taste of caffeine = details: in vivo; cited from earlier work
taste = details: studied within the context of various sweeteners; cited from earlier work
[2] = system: sweet impression of a sucrose solution; experiment: Enhancement of the sweet impression of a sucrose solution, rated by a group of experts (0 not sweet to 10 extremely sweet); type: in vivo
Experimental: In order to quantify the enhancement of the sweet impression, the sweetness of a sucrose solution comprising 5% and of a sample comprising 5% sucrose and an amount of compound 2 was determined by a group of experts (rating 0 [not sweet] to 10 [extremely sweet]). The evaluation was carried out by calculating the […] (in %) in the sweet impression from the average values of the assessments of the sucrose solution or of the solution comprising sucrose and compound 2.

[3] = system: sweetness impression of sugared low-fat yoghurt; experiment: Sweetness enhancement in low-fat yoghurt with 5% sugar, coded tasting by 16 testers (scale 0 to 10); type: in vivo
Text: 5% sugar was stirred into a commercially available natural yoghurt (without additives) having a fat content of 0.1% (sample 1). 200 ppm of compound 2 (Example 2), which had previously been dissolved in a minimal amount of ethanol, were additionally incorporated into a sample 2. Samples 1 and 2 were presented in coded form, in a different but predetermined order, to 16 testers for tasting. The testers had to note the sweetness impression on a scale of from 0 (not present) to 10 (extreme sweetness). In addition, the testers were to note other taste impressions.

In the case of `O=C(O)c1ccc(O)cc1O` [2,4-DHB, 2,4-Dihydroxybenzoic acid, reference compound], the “Bitter impression (1-10) with” value [1] is reported as 5.0 ± 1.0 and the “% reduction in the bitter impression” value [1] is reported as 3%.
In the case of `O=C([O-])c1ccc(O)cc1O.[K+]` [2,4-Dihydroxybenzoic acid potassium salt], the “ability to suppress the taste of caffeine” value (taste of caffeine) is given as “not able to suppress the taste of caffeine”.
For `COc1ccc(CC(=O)c2c(O)cc(O)cc2O)cc1O` [2-(3-hydroxy-4-methoxyphenyl)-1-(2,4,6-trihydroxyphenyl)ethanone], the “taste of the compound itself” value (taste) is listed as “tasteless”.
With `COc1cc(CC(=O)c2c(O)cc(O)cc2O)ccc1O` [Compound 1, 2-(4-Hydroxy-3-methoxyphenyl)-1-(2,4,6-trihydroxyphenyl)-ethanone] the “Bitter impression (1-10) with” value [1] was 3.8 ± 0.9 and the “% reduction in the bitter impression” value [1] was 23%.
With `COc1cc(CC(=O)c2ccc(O)cc2O)ccc1O` [Compound 2, 1-(2,4-Dihydroxyphenyl)-2-(4-hydroxy-3-methoxyphenyl)-ethanone] the “Sweet impresssion (1-10) with” value ([2]; 5% sucrose plus 100 ppm substance, standard deviations given as error) was 5.9 ± 1.5, the “% enhancement of the sweet impression” value ([2]; 5% sucrose, 100 ppm substance, calculated from average ratings) was 18% and the “Bitter impression (1-10) with” value [1] was 4.3 ± 0.8. The “% reduction in the bitter impression” value [1] was 10%, the “number of testers who found the sample with compound sweeter” value ([3]; of 16 testers, 4 found sample 1 sweeter, 2 found both equally sweet) was 10 and the “further taste impression noted” value ([3]; sample 2 (200 ppm compound)) was “sticky”. The preference of testers ([3]; sample 2 (200 ppm compound) versus sample 1) was “preferred to sample 1 by the majority of testers”, the “enhancement of the sweetness impression” value ([3]; sample 2 (200 ppm compound) versus sample 1 in yoghurt with 5% sugar) was 18% and the “average sweetness impression rating (0 to 10)” value ([3]; sample 2: yoghurt 0.1% fat, 5% sugar, 200 ppm compound, sample 1 without compound rated 4.1) was 4.9.
